# Test results as given in US20240360178A1, “MACROCYCLIC IMMUNOMODULATORS” (Bristol-Myers Squibb Company, priority 2021, published 2024).
# pIC50: −log10 of the molar value. Starred links: 1 amine or outer side, 2 acyl side, 3 side chain; linkers in the order of their positions; H or OH if unused. Positions of bridges follow the written chain, without caps; N, C: chain ends. Non-standard residues stand in square brackets, D forms with d. Residues, ends and D or L forms follow the SMILES beside them. ξ: configuration not given here. *: point of attachment. Phe(4-COOH) = N[C@@H](Cc1ccc(C(=O)O)cc1)C(=O)O; Phe(4-CH2NH2) = NCc1ccc(C[C@H](N)C(=O)O)cc1; Bip = N[C@@H](Cc1ccc(-c2ccccc2)cc1)C(=O)O; Phe(3-F) = N[C@@H](Cc1cccc(F)c1)C(=O)O; Phe(3-Me) = Cc1cccc(C[C@H](N)C(=O)O)c1; NMeF = CN[C@@H](Cc1ccccc1)C(=O)O; X2 = O=C([C@H]1COCCN1[*:1])[*:2]; dTic = O=C(O)[C@H]1Cc2ccccc2CN1; dPip = O=C(O)[C@H]1CCCCN1; Carboxymethyl = O=C(O)C*; NMeA = CN[C@@H](C)C(=O)O; ξF = NC(Cc1ccccc1)C(=O)O; Sar = CNCC(=O)O
# Molecular target: T1, human PD-1 (Jurkat-PD-1 cells) / PE-labeled human PD-L1-Ig (Homo sapiens, UniProt Q15116)
# T1 construct: expressed in transfected cells; host or cells: Jurkat cell line over-expressing human PD-1
# T1 sequence (Q15116 25-288): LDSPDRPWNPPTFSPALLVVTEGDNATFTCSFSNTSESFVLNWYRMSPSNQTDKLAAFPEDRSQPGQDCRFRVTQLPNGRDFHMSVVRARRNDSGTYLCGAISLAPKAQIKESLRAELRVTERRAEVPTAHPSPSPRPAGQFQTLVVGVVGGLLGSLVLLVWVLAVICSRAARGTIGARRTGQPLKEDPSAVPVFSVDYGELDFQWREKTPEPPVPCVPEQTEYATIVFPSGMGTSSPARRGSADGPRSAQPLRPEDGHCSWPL
# Assay: Jurkat-PD-1 Cell Binding High-Content Screening Assay (CBA); Jurkat hPD1-PDL1 assay
# Conditions: Jurkat cell line over-expressing human PD-1; PE-labeled PD-L1-Ig 20 nM final; compound incubated 2 hours at 37° C.; read-out: Jurkat HPD1-PDL1 IC50
# Description: The ability of the compounds of formula (I) to bind to PD-1 was investigated using a Jurkat-PD-1 Cell Binding High-Content Screening Assay.
# Jurkat-PD-1 Cell Binding High-Content Screening Assay (CBA)
# Phycoerythrin (PE) was covalently linked to the Ig epitope tag of human PD-L1-Ig and fluorescently-labeled PD-L1-Ig was used for binding studies with a Jurkat cell line over-expressing human PD-1 (Jurkat-PD-1). Briefly, 8×10^3 Jurkat-hPD-1 cells were seeded into 384 well plates in 20 μL of DMEM supplemented with 10% fetal calf serum. 100 nL of compound was added to cells followed by incubation at 37° C. for 2 hours. Then, 5 μL of PE-labeled PD-L1-Ig (20 nM final), diluted in DMEM supplemented with 10% fetal calf serum. […] Data was collected and processed using a Cell Insight NXT High Content Imager and associated software.
row,pIC50,Compound
1,7.22,CC(C)C[C@@H]1NC(=O)[C@H](CCCNC(=N)N)NC(=O)[C@H](Cc2ccccc2)N(C)C(=O)[C@H](C)N(C)C(=O)[C@H](CCCNC(=N)N)NC(=O)[C@H](Cc2ccc(-c3ccccc3)cc2)NC(=O)[C@H](C(C)C)NC(=O)[C@H](Cc2c[nH]c3ccccc23)NC(=O)[C@H](CC(=O)O)NC(=O)[C@H](Cc2ccc(O)cc2)NC(=O)[C@H](CC(N)=O)NC(=O)CSC[C@@H](C(=O)NCC(N)=O)NC(=O)[C@H](CO)NC(=O)[C@H](C(C)C)NC1=O [Example 1032] ({CH2CO}-NYDWV[Bip]R[NMeA][NMeF]RLVSCG-NH2; thioether N-14)
2,7.22,Cc1cccc(C[C@@H]2NC(=O)[C@H](Cc3ccccc3)NC(=O)CSC[C@@H](C(=O)N[C@@H](C)C(N)=O)NC(=O)[C@H](CO)NC(=O)[C@H](C(C)C)NC(=O)[C@H](CC(C)C)NC(=O)[C@H](CC(N)=O)NC(=O)[C@H]3CCCN3C(=O)[C@H](C)N(C)C(=O)[C@H](C(C)C)NC(=O)[C@H](Cc3ccc(-c4ccccc4)cc3)NC(=O)[C@H](CC(C)C)NC(=O)[C@H](Cc3c[nH]c4ccccc34)NC(=O)[C@H](CC(=O)O)NC2=O)c1 [Example 1033] ({CH2CO}-F[Phe(3-Me)]DWL[Bip]V[NMeA][dP]NLVSCA-NH2; thioether N-14)
3,7.22,CC(C)C[C@@H]1NC(=O)[C@H](Cc2c[nH]c3ccccc23)NC(=O)[C@H](CC(=O)O)NC(=O)[C@H](Cc2ccc(O)cc2)NC(=O)[C@H](Cc2ccccc2)NC(=O)CSC[C@@H](C(=O)N[C@@H](C)C(N)=O)NC(=O)[C@H](CO)NC(=O)[C@H](C(C)C)NC(=O)[C@H](CC(C)C)NC(=O)[C@H](CC(N)=O)NC(=O)[C@H]2CCCN2C(=O)[C@H](C)N(C)C(=O)[C@H](C(C)C)NC(=O)[C@H](Cc2ccc(-c3ccccc3)cc2)NC1=O [Example 1034] ({CH2CO}-FYDWL[Bip]V[NMeA][dP]NLVSCA-NH2; thioether N-14)
4,7.22,CC(C)C[C@@H]1NC(=O)[C@H](Cc2c[nH]c3ccccc23)NC(=O)[C@H](CC(=O)O)NC(=O)[C@H](Cc2ccc(O)cc2)NC(=O)[C@H](Cc2ccccc2)NC(=O)CSC[C@@H](C(=O)NCC(N)=O)NC(=O)[C@H](CO)NC(=O)[C@H](C(C)C)NC(=O)[C@H](CC(C)C)NC(=O)[C@H](CC(N)=O)NC(=O)[C@H]2CCCN2C(=O)[C@H](C)N(C)C(=O)[C@H](C(C)C)NC(=O)[C@H](Cc2ccc(-c3ccccc3)cc2)NC1=O [Example 1035] ({CH2CO}-FYDWL[Bip]V[NMeA][dP]NLVSCG-NH2; thioether N-14)
5,7.22,CC(C)C[C@@H]1NC(=O)[C@H](Cc2c[nH]c3ccccc23)NC(=O)[C@H](CC(=O)O)NC(=O)[C@H](Cc2ccc(O)cc2)NC(=O)[C@H](Cc2ccccc2)NC(=O)CSC[C@@H](C(=O)N[C@@H](C)C(N)=O)NC(=O)[C@H](CO)NC(=O)[C@H](C(C)C)NC(=O)[C@H](CC(C)C)NC(=O)[C@H](CCCCN)NC(=O)[C@H]2CCCN2C(=O)[C@H](C)N(C)C(=O)[C@H](CCC(=O)O)NC(=O)[C@H](Cc2ccc(-c3ccccc3)cc2)NC1=O [Example 1036] ({CH2CO}-FYDWL[Bip]E[NMeA][dP]KLVSCA-NH2; thioether N-14)
6,7.15,CC(C)C[C@@H]1NC(=O)[C@H](Cc2c[nH]c3ccccc23)NC(=O)[C@H](CC(=O)O)NC(=O)[C@H](Cc2ccc(O)cc2)NC(=O)[C@H](Cc2ccccc2)NC(=O)CSC[C@@H](C(=O)N[C@@H](C)C(N)=O)NC(=O)[C@H](CO)NC(=O)[C@H](C(C)C)NC(=O)[C@H](CC(C)C)NC(=O)[C@H](CCC(N)=O)NC(=O)[C@H]2CCCN2C(=O)[C@H](C)N(C)C(=O)[C@H](C(C)C)NC(=O)[C@H](Cc2ccc(-c3ccccc3)cc2)NC1=O [Example 1037] ({CH2CO}-FYDWL[Bip]V[NMeA][dP]QLVSCA-NH2; thioether N-14)
7,7.15,CC(C)C[C@@H]1NC(=O)[C@H](Cc2c[nH]c3ccccc23)NC(=O)[C@H](CC(=O)O)NC(=O)[C@H](Cc2ccc(O)cc2)NC(=O)[C@H](Cc2ccccc2)NC(=O)CSC[C@@H](C(=O)N[C@@H](C)C(N)=O)NC(=O)[C@H](CO)NC(=O)[C@H](C(C)C)NC(=O)[C@H](CC(C)C)NC(=O)[C@H](CC(N)=O)NC(=O)[C@H]2CCCCN2C(=O)[C@H](C)N(C)C(=O)[C@H](C(C)C)NC(=O)[C@H](Cc2ccc(-c3ccccc3)cc2)NC1=O [Example 1038] ({CH2CO}-FYDWL[Bip]V[NMeA][dPip]NLVSCA-NH2; thioether N-14)
8,7.15,CC(C)C[C@@H]1NC(=O)[C@H](Cc2c[nH]c3ccccc23)NC(=O)[C@H](CC(=O)O)NC(=O)[C@H](Cc2ccc(O)cc2)NC(=O)[C@H](Cc2ccccc2)NC(=O)CSC[C@@H](C(=O)N[C@@H](C)C(N)=O)NC(=O)[C@H](CO)NC(=O)[C@H](C(C)C)NC(=O)[C@H](CC(C)C)NC(=O)[C@H](CC(N)=O)NC(=O)[C@H]2CCCN2C(=O)[C@H](C)N(C)C(=O)[C@H](CCC(=O)O)NC(=O)[C@H](Cc2ccc(-c3ccccc3)cc2)NC1=O [Example 1039] ({CH2CO}-FYDWL[Bip]E[NMeA][dP]NLVSCA-NH2; thioether N-14)
9,7.15,CC(C)C[C@@H]1NC(=O)[C@H](Cc2c[nH]c3ccccc23)NC(=O)[C@H](CC(=O)O)NC(=O)[C@H](Cc2ccc(CN)cc2)NC(=O)[C@H](Cc2ccccc2)NC(=O)CSC[C@@H](C(=O)N[C@@H](C)C(N)=O)NC(=O)[C@H](CO)NC(=O)[C@H](C(C)C)NC(=O)[C@H](CC(C)C)NC(=O)[C@H](CC(N)=O)NC(=O)[C@H]2CCCN2C(=O)[C@H](C)N(C)C(=O)[C@H](C(C)C)NC(=O)[C@H](Cc2ccc(-c3ccccc3)cc2)NC1=O [Example 1040] ({CH2CO}-F[Phe(4-CH2NH2)]DWL[Bip]V[NMeA][dP]NLVSCA-NH2; thioether N-14)
10,7.15,CC(C)C[C@@H]1NC(=O)[C@H](Cc2c[nH]c3ccccc23)NC(=O)[C@H](CC(=O)O)NC(=O)[C@H](Cc2ccc(OCC(=O)O)cc2)NC(=O)[C@H](CC(N)=O)NC(=O)CSC[C@@H](C(=O)N[C@@H](C)C(N)=O)NC(=O)[C@H](CO)NC(=O)[C@H](C(C)C)NC(=O)[C@H](CC(C)C)NC(=O)[C@H](CC(N)=O)NC(=O)[C@H]2CCCN2C(=O)[C@H](C)N(C)C(=O)[C@H](C(C)C)NC(=O)[C@H](Cc2ccc(-c3ccccc3)cc2)NC1=O [Example 1042] ({CH2CO}-NY(Carboxymethyl)DWL[Bip]V[NMeA][dP]NLVSCA-NH2; thioether N-14)
11,7.10,CC(C)C[C@@H]1NC(=O)[C@H](Cc2c[nH]c3ccccc23)NC(=O)[C@H](CC(=O)O)NC(=O)[C@H](Cc2ccc(O)cc2)NC(=O)C(Cc2ccccc2)NC(=O)CSC[C@@H](C(=O)NCC(N)=O)NC(=O)[C@@H](CO)NC(=O)[C@H](C(C)C)NC(=O)[C@H](CC(C)C)NC(=O)[C@H](CC(N)=O)NC(=O)CN(C)C(=O)[C@H](C)N(C)C(=O)[C@H](C(C)C)NC(=O)[C@H](Cc2ccc(-c3ccccc3)cc2)NC1=O (stereo partly drawn) [Example 1043] ({CH2CO}-[ξF]YDWL[Bip]V[NMeA][Sar]NLV[dS]CG-NH2; thioether N-14)
12,7.10,CC(C)C[C@@H]1NC(=O)[C@H](Cc2c[nH]c3ccccc23)NC(=O)[C@H](CC(=O)O)NC(=O)[C@H](Cc2ccc(O)cc2)NC(=O)[C@H](Cc2ccccc2)NC(=O)CSC[C@@H](C(=O)N[C@@H](C)C(N)=O)NC(=O)[C@H](CO)NC(=O)[C@H](C(C)C)NC(=O)[C@H](CC(C)C)NC(=O)[C@H](CC(N)=O)NC(=O)[C@H]2COCCN2C(=O)[C@H](C)N(C)C(=O)[C@H](C(C)C)NC(=O)[C@H](Cc2ccc(-c3ccccc3)cc2)NC1=O [Example 1044] ({CH2CO}-FYDWL[Bip]V[NMeA][X2]NLVSCA-NH2; thioether N-14)
13,7.10,CC(C)C[C@@H]1NC(=O)[C@H](Cc2c[nH]c3ccccc23)NC(=O)[C@H](CC(=O)O)NC(=O)[C@H](Cc2ccc(C(=O)O)cc2)NC(=O)[C@H](Cc2cnc[nH]2)NC(=O)CSC[C@@H](C(=O)N[C@@H](C)C(N)=O)NC(=O)[C@H](CO)NC(=O)[C@H](C(C)C)NC(=O)[C@H](CC(C)C)NC(=O)[C@H](CC(N)=O)NC(=O)[C@H]2CCCN2C(=O)[C@H](C)N(C)C(=O)[C@H](C(C)C)NC(=O)[C@H](Cc2ccc(-c3ccccc3)cc2)NC1=O [Example 1046] ({CH2CO}-H[Phe(4-COOH)]DWL[Bip]V[NMeA][dP]NLVSCA-NH2; thioether N-14)
14,7.05,CC(C)C[C@@H]1NC(=O)[C@H](Cc2c[nH]c3ccccc23)NC(=O)[C@H](CC(=O)O)NC(=O)[C@H](Cc2cccc(F)c2)NC(=O)[C@H](Cc2ccccc2)NC(=O)CSC[C@@H](C(=O)N[C@@H](C)C(N)=O)NC(=O)[C@H](CO)NC(=O)[C@H](C(C)C)NC(=O)[C@H](CC(C)C)NC(=O)[C@H](CC(N)=O)NC(=O)[C@H]2CCCN2C(=O)[C@H](C)N(C)C(=O)[C@H](C(C)C)NC(=O)[C@H](Cc2ccc(-c3ccccc3)cc2)NC1=O [Example 1047] ({CH2CO}-F[Phe(3-F)]DWL[Bip]V[NMeA][dP]NLVSCA-NH2; thioether N-14)
15,7.05,CC(C)C[C@@H]1NC(=O)[C@H](Cc2c[nH]c3ccccc23)NC(=O)[C@H](CC(=O)O)NC(=O)[C@H](Cc2ccc(O)cc2)NC(=O)[C@H](Cc2ccccc2)NC(=O)CSC[C@@H](C(=O)N[C@@H](C)C(N)=O)NC(=O)[C@H](CO)NC(=O)[C@H](C(C)C)NC(=O)[C@H](CC(C)C)NC(=O)[C@H](CC(N)=O)NC(=O)[C@H]2Cc3ccccc3CN2C(=O)[C@H](C)N(C)C(=O)[C@H](C(C)C)NC(=O)[C@H](Cc2ccc(-c3ccccc3)cc2)NC1=O [Example 1049] ({CH2CO}-FYDWL[Bip]V[NMeA][dTic]NLVSCA-NH2; thioether N-14)
